According to PubChem BioAssay (NCI):
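Assay format: 96-well plates, 48-hour exposure. GI50 marks 50% less growth. The concentration for full growth arrest is given as TGI.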

What was measured:
Assay in all cases: inhibition of tumour cell growth, NCI panel, 48 h
HOP-92 NSCLC = tested on: HOP-92 NSCLC
KM12 colon = tested on: KM12 colon
RPMI-8226 leukemia = tested on: RPMI-8226 leukemia
HT29 colon = tested on: HT29 colon
SF-295 CNS = tested on: SF-295 CNS
786-0 renal = tested on: 786-0 renal
A498 renal = tested on: A498 renal
SK-MEL-28 melanoma = tested on: SK-MEL-28 melanoma
CAKI-1 renal = tested on: CAKI-1 renal
T-47D breast = tested on: T-47D breast
HCC-2998 colon = tested on: HCC-2998 colon
LOX IMVI melanoma = tested on: LOX IMVI melanoma
SK-OV-3 ovarian = tested on: SK-OV-3 ovarian
HL-60(TB) leukemia = tested on: HL-60(TB) leukemia
U251 CNS = tested on: U251 CNS
OVCAR-5 ovarian = tested on: OVCAR-5 ovarian
SW-620 colon = tested on: SW-620 colon
SK-MEL-2 melanoma = tested on: SK-MEL-2 melanoma
UACC-62 melanoma = tested on: UACC-62 melanoma
A549 NSCLC = tested on: A549 NSCLC
NCI-H226 lung = tested on: NCI-H226 lung
DU-145 prostate = tested on: DU-145 prostate
SR leukemia = tested on: SR leukemia
MDA-MB-231 breast = tested on: MDA-MB-231 breast
NCI-H460 lung = tested on: NCI-H460 lung
K-562 leukemia = tested on: K-562 leukemia
NCI-H23 lung = tested on: NCI-H23 lung
SNB-75 CNS = tested on: SNB-75 CNS
ACHN renal = tested on: ACHN renal
NCI-H522 lung = tested on: NCI-H522 lung
OVCAR-8 ovarian = tested on: OVCAR-8 ovarian
UO-31 renal = tested on: UO-31 renal
OVCAR-4 ovarian = tested on: OVCAR-4 ovarian
SF-268 CNS = tested on: SF-268 CNS
BT-549 breast = tested on: BT-549 breast
RXF 393 renal = tested on: RXF 393 renal
HS 578T breast = tested on: HS 578T breast
MOLT-4 leukemia = tested on: MOLT-4 leukemia
CCRF-CEM leukemia = tested on: CCRF-CEM leukemia
SK-MEL-5 melanoma = tested on: SK-MEL-5 melanoma
PC-3 prostate = tested on: PC-3 prostate
HCT-15 colon = tested on: HCT-15 colon
UACC-257 melanoma = tested on: UACC-257 melanoma
NCI/ADR-RES ovarian = tested on: NCI/ADR-RES ovarian
HOP-62 NSCLC = tested on: HOP-62 NSCLC
M14 melanoma = tested on: M14 melanoma
COLO 205 colon = tested on: COLO 205 colon
HCT-116 colon = tested on: HCT-116 colon
MALME-3M melanoma = tested on: MALME-3M melanoma
SNB-19 CNS = tested on: SNB-19 CNS
SN12C renal = tested on: SN12C renal
EKVX NSCLC = tested on: EKVX NSCLC
SF-539 CNS = tested on: SF-539 CNS
TK-10 renal = tested on: TK-10 renal
MCF7 breast = tested on: MCF7 breast

COC(=O)c1cc(-c2ccc(OC)cc2)[nH]c1N/N=C/c1c(Cl)cccc1Cl
GI50 (HOP-92 NSCLC): 206 nM
TGI (HOP-92 NSCLC): 2500 nM
GI50 (KM12 colon): 141 nM
TGI (KM12 colon): 6750 nM
GI50 (RPMI-8226 leukemia): 187 nM
TGI (RPMI-8226 leukemia): 575 nM
GI50 (HT29 colon): 255 nM
TGI (HT29 colon): 1260 nM
GI50 (SF-295 CNS): 124 nM
TGI (SF-295 CNS): 1490 nM
GI50 (786-0 renal): 331 nM
TGI (786-0 renal): 4790 nM
GI50 (A498 renal): 185 nM
TGI (A498 renal): 3430 nM
GI50 (SK-MEL-28 melanoma): 387 nM
TGI (SK-MEL-28 melanoma): > 100000 nM
GI50 (CAKI-1 renal): 351 nM
TGI (CAKI-1 renal): 15500 nM
GI50 (T-47D breast): 505 nM
TGI (T-47D breast): > 31800 nM
GI50 (HCC-2998 colon): 118 nM
TGI (HCC-2998 colon): 536 nM
GI50 (LOX IMVI melanoma): 146 nM
TGI (LOX IMVI melanoma): 5420 nM
GI50 (SK-OV-3 ovarian): 188 nM
TGI (SK-OV-3 ovarian): 2190 nM
GI50 (HL-60(TB) leukemia): 235 nM
TGI (HL-60(TB) leukemia): 574 nM
GI50 (U251 CNS): 292 nM
TGI (U251 CNS): 1820 nM
GI50 (OVCAR-5 ovarian): 1490 nM
TGI (OVCAR-5 ovarian): 8370 nM
GI50 (SW-620 colon): 260 nM
TGI (SW-620 colon): 97500 nM
GI50 (SK-MEL-2 melanoma): 377 nM
TGI (SK-MEL-2 melanoma): 8200 nM
GI50 (UACC-62 melanoma): 205 nM
TGI (UACC-62 melanoma): 16800 nM
GI50 (A549 NSCLC): 361 nM
TGI (A549 NSCLC): 4480 nM
GI50 (NCI-H226 lung): 574 nM
TGI (NCI-H226 lung): 28100 nM
GI50 (DU-145 prostate): 229 nM
TGI (DU-145 prostate): 831 nM
GI50 (SR leukemia): 90.9 nM
TGI (SR leukemia): 1180 nM
GI50 (MDA-MB-231 breast): 462 nM
TGI (MDA-MB-231 breast): 3240 nM
GI50 (NCI-H460 lung): 201 nM
TGI (NCI-H460 lung): 992 nM
GI50 (K-562 leukemia): 144 nM
TGI (K-562 leukemia): 6650 nM
GI50 (NCI-H23 lung): 412 nM
TGI (NCI-H23 lung): 14000 nM
GI50 (SNB-75 CNS): 161 nM
TGI (SNB-75 CNS): 725 nM
GI50 (ACHN renal): 316 nM
TGI (ACHN renal): 4420 nM
GI50 (NCI-H522 lung): 87.7 nM
TGI (NCI-H522 lung): 491 nM
GI50 (OVCAR-8 ovarian): 442 nM
TGI (OVCAR-8 ovarian): 5160 nM
GI50 (UO-31 renal): 287 nM
TGI (UO-31 renal): 2550 nM
GI50 (OVCAR-4 ovarian): 659 nM
TGI (OVCAR-4 ovarian): > 53600 nM
GI50 (SF-268 CNS): 203 nM
TGI (SF-268 CNS): 10400 nM
GI50 (BT-549 breast): 177 nM
TGI (BT-549 breast): 2020 nM
GI50 (RXF 393 renal): 142 nM
TGI (RXF 393 renal): 332 nM
GI50 (HS 578T breast): 190 nM
TGI (HS 578T breast): 2820 nM
GI50 (MOLT-4 leukemia): 415 nM
GI50 (CCRF-CEM leukemia): 312 nM
TGI (CCRF-CEM leukemia): 3390 nM
GI50 (SK-MEL-5 melanoma): 198 nM
TGI (SK-MEL-5 melanoma): 3500 nM
GI50 (PC-3 prostate): 261 nM
TGI (PC-3 prostate): 3780 nM
GI50 (HCT-15 colon): 204 nM
TGI (HCT-15 colon): 1490 nM
GI50 (UACC-257 melanoma): 409 nM
TGI (UACC-257 melanoma): 9170 nM
GI50 (NCI/ADR-RES ovarian): 160 nM
TGI (NCI/ADR-RES ovarian): 5110 nM
GI50 (HOP-62 NSCLC): 275 nM
TGI (HOP-62 NSCLC): 4710 nM
GI50 (M14 melanoma): 196 nM
TGI (M14 melanoma): 1100 nM
GI50 (COLO 205 colon): 846 nM
TGI (COLO 205 colon): 2930 nM
GI50 (HCT-116 colon): 354 nM
TGI (HCT-116 colon): 2140 nM
GI50 (MALME-3M melanoma): 316 nM
GI50 (SNB-19 CNS): 358 nM
TGI (SNB-19 CNS): 11500 nM
GI50 (SN12C renal): 507 nM
TGI (SN12C renal): 18700 nM
GI50 (EKVX NSCLC): 224 nM
TGI (EKVX NSCLC): 3230 nM
GI50 (SF-539 CNS): 172 nM
TGI (SF-539 CNS): 553 nM
GI50 (TK-10 renal): 568 nM
TGI (TK-10 renal): 13800 nM
GI50 (MCF7 breast): 107 nM
TGI (MCF7 breast): 887 nM
